According to BindingDB's records for doi:10.1124/jpet.105.083964 (Taisho Pharmaceutical, 2005):

What was measured:
[1] = target: Type-1 angiotensin II receptor A (Rattus norvegicus, UniProt P25095)
Adenosine receptor A2a = Adenosine receptor A2a (Rattus norvegicus, UniProt P30543)
[2] = target: L-type calcium channel (Rattus norvegicus)
[3] = target: Gamma-aminobutyric acid receptor subunit alpha-1 (Rattus norvegicus, UniProt P62813)
[4] = target: Tumor necrosis factor receptor (Homo sapiens)
[5] = target: Platelet-activating factor receptor (Oryctolagus cuniculus)
[6] = target: Beta-1 adrenergic receptor (Rattus norvegicus, UniProt P18090)
Phosphodiesterase 3a = Phosphodiesterase 3a (Cavia porcellus, UniProt C7DXW3)
[7] = target: Neuronal acetylcholine receptor subunit alpha-9 (Rattus norvegicus, UniProt P43144)
[8] = target: Phosphodiesterase 5A (Homo sapiens)
B2 bradykinin receptor = B2 bradykinin receptor (Homo sapiens, UniProt P30411)
D(1A) dopamine receptor = D(1A) dopamine receptor (Rattus norvegicus, UniProt P18901)
Substance-P receptor = Substance-P receptor (Homo sapiens, UniProt P25103)
[9] = target: Nitric oxide synthase, endothelial (Homo sapiens, UniProt P29474)
Caspase-3 = Caspase-3 (Homo sapiens, UniProt P42574)
[10] = target: Insulin receptor (Rattus norvegicus) (UniProt P15127)
Mu-type opioid receptor = Mu-type opioid receptor (Rattus norvegicus, UniProt P33535)
[11] = target: Cholecystokinin receptor type A (Homo sapiens) (UniProt P32238)
[12] = target: Type-2 angiotensin II receptor (Bos taurus, UniProt G5E6F7)
Histamine H1 receptor = Histamine H1 receptor (Cavia porcellus, UniProt P31389)
[13] = target: 5-hydroxytryptamine receptor 2A (Rattus norvegicus, UniProt P14842)
[14] = target: Sigma non-opioid intracellular receptor 1 (Rattus norvegicus, UniProt Q9R0C9)
D(2) dopamine receptor = D(2) dopamine receptor (Rattus norvegicus, UniProt P61169)
[15] = target: Prostaglandin G/H synthase 2 (Ovis aries, UniProt P79208)
[16] = target: Corticotropin-releasing factor receptor 1 (Rattus norvegicus, UniProt P35353)
[17] = target: Vasoactive intestinal polypeptide receptor 1 (Homo sapiens, UniProt P32241)
[18] = target: 5-hydroxytryptamine receptor 1B (Rattus norvegicus, UniProt P28564)
Glucocorticoid receptor = Glucocorticoid receptor (Mus musculus, UniProt P06537)
[19] = target: Muscarinic acetylcholine receptor M2 (Rattus norvegicus, UniProt P10980)
[20] = target: Dual specificity calcium/calmodulin-dependent 3',5'-cyclic nucleotide phosphodiesterase 1A (Bos taurus, UniProt P14100)
[21] = target: cAMP-specific 3',5'-cyclic phosphodiesterase 4D (Homo sapiens, UniProt Q08499)
[22] = target: Angiotensin-converting enzyme (Homo sapiens, UniProt P12821)
Adenosine receptor A1 = Adenosine receptor A1 (Rattus norvegicus, UniProt P25099)
[23] = target: Prostaglandin G/H synthase 1 (Rattus norvegicus, UniProt Q63921)
[24] = target: Gamma-aminobutyric acid (GABA) B receptor 1 (Rattus norvegicus, UniProt Q6MFX8)
[25] = target: Glutamate receptor ionotropic, NMDA 1 (Rattus norvegicus, UniProt P35439)
[26] = target: PDGF receptor (Mus musculus)
[27] = target: Endothelin-1 receptor (Rattus norvegicus) (UniProt P26684)
[28] = target: Interleukin-1 receptor (Mus musculus)

Measured: Ki

Sequence of Prostaglandin G/H synthase 2 (P79208 whole entry): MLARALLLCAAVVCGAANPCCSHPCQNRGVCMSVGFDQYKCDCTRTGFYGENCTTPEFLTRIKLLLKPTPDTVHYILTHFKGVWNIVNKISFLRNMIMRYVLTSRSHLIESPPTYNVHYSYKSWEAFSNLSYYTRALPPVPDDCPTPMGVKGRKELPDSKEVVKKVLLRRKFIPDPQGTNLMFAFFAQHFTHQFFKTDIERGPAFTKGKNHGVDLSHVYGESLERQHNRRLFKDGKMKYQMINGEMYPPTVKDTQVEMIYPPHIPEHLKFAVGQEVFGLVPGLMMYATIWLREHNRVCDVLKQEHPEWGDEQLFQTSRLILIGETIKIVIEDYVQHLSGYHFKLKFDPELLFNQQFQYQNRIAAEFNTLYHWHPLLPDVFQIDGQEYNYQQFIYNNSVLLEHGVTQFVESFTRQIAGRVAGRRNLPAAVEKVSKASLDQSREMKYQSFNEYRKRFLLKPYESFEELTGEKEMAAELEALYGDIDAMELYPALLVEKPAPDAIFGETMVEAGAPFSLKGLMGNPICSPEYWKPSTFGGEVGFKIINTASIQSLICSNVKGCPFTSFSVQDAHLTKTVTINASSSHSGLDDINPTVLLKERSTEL
Sequence of 5-hydroxytryptamine receptor 1B (P28564 whole entry): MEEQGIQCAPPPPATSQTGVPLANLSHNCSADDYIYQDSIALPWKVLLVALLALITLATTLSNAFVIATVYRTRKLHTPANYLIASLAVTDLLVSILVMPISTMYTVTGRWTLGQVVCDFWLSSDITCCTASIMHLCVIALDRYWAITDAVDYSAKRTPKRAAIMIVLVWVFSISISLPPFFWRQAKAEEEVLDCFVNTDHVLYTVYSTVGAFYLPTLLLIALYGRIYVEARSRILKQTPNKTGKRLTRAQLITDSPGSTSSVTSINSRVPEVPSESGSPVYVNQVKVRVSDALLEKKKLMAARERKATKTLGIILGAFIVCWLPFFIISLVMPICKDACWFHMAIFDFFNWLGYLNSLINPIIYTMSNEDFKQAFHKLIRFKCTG
Sequence of Mu-type opioid receptor (P33535 whole entry): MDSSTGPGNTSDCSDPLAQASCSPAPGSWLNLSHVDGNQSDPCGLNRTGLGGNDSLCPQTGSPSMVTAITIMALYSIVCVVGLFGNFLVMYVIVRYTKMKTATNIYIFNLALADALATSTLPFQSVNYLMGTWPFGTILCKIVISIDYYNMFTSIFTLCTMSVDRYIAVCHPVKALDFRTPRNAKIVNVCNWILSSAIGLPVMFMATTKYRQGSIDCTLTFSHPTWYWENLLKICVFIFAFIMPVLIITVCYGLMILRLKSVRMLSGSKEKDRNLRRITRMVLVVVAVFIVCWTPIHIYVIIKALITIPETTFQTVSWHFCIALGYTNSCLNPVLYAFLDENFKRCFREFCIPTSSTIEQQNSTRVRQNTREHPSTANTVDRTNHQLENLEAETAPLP
Sequence of Sigma non-opioid intracellular receptor 1 (Q9R0C9 whole entry): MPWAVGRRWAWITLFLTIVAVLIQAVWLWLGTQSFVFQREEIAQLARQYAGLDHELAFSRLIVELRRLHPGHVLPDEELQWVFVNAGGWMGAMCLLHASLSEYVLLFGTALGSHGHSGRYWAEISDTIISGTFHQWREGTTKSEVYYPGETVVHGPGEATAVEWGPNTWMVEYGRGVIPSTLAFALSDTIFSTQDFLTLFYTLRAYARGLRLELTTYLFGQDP
Sequence of Substance-P receptor (P25103 whole entry): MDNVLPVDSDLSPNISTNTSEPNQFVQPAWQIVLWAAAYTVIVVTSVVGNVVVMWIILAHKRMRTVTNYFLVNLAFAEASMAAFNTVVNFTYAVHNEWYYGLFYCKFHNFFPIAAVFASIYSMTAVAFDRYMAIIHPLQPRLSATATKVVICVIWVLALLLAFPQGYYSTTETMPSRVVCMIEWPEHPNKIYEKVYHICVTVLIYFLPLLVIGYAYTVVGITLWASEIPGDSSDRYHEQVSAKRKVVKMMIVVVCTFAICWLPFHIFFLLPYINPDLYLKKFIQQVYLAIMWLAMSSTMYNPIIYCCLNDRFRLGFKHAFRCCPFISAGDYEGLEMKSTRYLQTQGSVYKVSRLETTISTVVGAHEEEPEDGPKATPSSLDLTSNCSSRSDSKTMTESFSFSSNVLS
Sequence of Caspase-3 (P42574 29-175 limits assumed): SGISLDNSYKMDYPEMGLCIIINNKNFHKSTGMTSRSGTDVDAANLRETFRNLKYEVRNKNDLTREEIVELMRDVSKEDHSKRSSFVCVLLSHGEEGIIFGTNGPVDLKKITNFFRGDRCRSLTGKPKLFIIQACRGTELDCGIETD
Sequence of Caspase-3 (P42574 176-277 limits assumed): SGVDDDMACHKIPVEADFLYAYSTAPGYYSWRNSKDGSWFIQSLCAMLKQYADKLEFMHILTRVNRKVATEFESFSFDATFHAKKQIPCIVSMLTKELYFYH
Sequence of D(2) dopamine receptor (P61169 whole entry): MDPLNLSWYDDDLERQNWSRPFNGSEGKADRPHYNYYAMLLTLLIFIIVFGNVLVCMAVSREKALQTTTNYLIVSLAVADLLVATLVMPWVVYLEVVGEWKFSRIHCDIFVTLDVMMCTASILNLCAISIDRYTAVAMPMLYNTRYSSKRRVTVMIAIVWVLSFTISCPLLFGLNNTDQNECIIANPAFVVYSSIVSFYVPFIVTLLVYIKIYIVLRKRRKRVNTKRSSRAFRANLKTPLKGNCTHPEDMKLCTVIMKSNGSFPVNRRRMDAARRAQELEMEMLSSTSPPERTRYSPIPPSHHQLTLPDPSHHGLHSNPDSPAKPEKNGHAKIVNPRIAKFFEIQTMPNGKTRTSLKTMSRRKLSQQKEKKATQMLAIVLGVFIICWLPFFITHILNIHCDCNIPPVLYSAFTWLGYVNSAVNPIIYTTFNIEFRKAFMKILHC
Sequence of Adenosine receptor A1 (P25099 whole entry): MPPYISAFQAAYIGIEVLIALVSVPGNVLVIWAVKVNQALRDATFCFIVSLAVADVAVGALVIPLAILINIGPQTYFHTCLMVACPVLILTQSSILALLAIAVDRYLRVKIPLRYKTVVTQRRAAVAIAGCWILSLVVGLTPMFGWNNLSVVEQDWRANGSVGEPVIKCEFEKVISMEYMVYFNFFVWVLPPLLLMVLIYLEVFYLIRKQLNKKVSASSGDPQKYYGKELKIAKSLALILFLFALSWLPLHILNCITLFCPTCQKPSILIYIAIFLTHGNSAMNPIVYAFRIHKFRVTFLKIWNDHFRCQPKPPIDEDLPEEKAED
Sequence of Endothelin-1 receptor (Rattus norvegicus) (P26684 whole entry, looked up): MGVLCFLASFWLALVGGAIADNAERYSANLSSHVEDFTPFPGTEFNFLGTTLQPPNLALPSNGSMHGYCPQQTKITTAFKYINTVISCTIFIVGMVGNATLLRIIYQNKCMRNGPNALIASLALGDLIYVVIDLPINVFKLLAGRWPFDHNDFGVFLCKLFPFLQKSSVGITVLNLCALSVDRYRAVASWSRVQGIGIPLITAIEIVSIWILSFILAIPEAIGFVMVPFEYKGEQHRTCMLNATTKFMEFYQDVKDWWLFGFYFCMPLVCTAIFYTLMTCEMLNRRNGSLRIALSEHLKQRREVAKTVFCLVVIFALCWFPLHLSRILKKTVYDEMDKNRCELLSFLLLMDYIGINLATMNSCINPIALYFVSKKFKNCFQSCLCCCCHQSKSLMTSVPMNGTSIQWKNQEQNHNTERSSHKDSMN
Sequence of Corticotropin-releasing factor receptor 1 (P35353 whole entry): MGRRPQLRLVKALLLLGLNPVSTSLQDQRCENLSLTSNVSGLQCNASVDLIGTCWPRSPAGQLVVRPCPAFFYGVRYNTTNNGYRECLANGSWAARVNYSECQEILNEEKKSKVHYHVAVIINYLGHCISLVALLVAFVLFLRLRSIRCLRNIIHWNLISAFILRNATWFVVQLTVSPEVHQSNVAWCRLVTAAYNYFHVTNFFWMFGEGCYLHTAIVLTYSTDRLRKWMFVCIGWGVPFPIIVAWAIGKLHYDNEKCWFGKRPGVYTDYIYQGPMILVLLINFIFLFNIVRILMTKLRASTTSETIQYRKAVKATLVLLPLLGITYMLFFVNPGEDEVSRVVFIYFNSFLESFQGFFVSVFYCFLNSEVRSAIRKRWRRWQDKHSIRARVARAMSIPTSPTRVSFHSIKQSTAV
Sequence of Gamma-aminobutyric acid (GABA) B receptor 1 (Q6MFX8 whole entry): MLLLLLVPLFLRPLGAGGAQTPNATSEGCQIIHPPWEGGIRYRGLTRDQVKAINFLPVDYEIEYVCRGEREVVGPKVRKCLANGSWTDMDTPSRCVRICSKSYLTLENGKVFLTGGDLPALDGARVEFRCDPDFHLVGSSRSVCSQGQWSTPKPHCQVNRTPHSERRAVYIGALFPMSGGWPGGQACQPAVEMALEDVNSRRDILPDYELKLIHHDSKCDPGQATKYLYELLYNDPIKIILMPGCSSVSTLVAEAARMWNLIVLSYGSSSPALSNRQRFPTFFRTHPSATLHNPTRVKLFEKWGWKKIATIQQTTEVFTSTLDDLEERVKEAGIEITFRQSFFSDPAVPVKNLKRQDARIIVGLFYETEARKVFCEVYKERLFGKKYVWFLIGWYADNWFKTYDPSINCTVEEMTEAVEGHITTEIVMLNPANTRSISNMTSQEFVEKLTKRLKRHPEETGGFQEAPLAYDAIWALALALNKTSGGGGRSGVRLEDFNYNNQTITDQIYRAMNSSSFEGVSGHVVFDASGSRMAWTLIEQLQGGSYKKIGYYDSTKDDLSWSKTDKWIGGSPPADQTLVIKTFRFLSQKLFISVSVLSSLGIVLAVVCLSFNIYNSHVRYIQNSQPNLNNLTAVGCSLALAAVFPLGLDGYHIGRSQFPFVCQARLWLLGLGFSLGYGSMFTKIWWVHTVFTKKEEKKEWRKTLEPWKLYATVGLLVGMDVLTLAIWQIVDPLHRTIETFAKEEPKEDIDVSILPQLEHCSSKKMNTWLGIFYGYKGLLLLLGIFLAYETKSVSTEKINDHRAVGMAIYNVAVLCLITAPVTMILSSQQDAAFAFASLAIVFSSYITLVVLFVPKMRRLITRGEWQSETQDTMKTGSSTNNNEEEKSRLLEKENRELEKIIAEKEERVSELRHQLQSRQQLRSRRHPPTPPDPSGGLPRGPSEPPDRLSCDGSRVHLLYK

O/N=C/Nc1ccc(N2CCOCC2)c(Cl)c1 [N'-(3-Chloro-4-morpholinophenyl)-N-hydroxyformamidine]
> 10 µM: all assays above
